The text below walks through data of the supplement of paper PMC4862054.

Experiment in all cases: normalised viability (% of control), CellTiter-Blue; higher = more viable cells (about 100 = DMSO control)
What all share (details): incubation time: 72 h
(In general: Resazurin is reduced to fluorescent resorufin, in cell work by metabolically active cells.)

Test [1] concerns DU-4475. Here is the method:
(§1)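 DSRT, CellTiter-Blue viability, 72 h incubation. Signal is normalised to DMSO and benzethonium chloride controls. Value is the normalised response at dose 8.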

Test [2] concerns MDA-MB-453. How it is done:
as §1

For test [3], the system named is CAL-148. Here is the method:
as §1

Test [4] relates to HDQ-P1. How it is done:
as §1

The subject of test [5] is CAL-85-1. How it is done: as §1
The test system of test [6] is CAL-51. Here is the method: as §1
The subject of test [7] is DU-4475. How it is done: (§2)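 DSRT, CellTiter-Blue viability, 72 h incubation. Signal is normalised to DMSO and benzethonium chloride controls. Value is the normalised response at dose 7.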
The source holds these as a separate data set.

Test [8] has as its system MDA-MB-453. How it is done: as §2
The source holds these as a separate data set.

Test [9] concerns CAL-148. How it is done: as §2
The source holds these as a separate data set.

In test [10] the test system is HDQ-P1. How it is done:
as §2
This is another data set of the same source.

Test [11] has as its system CAL-85-1. Here is the method:
as §2
The source holds these as a separate data set.

The subject of test [12] is CAL-51. Here is the method: as §2
The source holds these as a separate data set.

For the compound `O=P1(NCCCl)OCCCN1CCCl` (stereo unspecified) [Ifosfamide] (3000 nM), the normalised viability in the test on DU-4475 [1] amounted to 87.2%; in the test on MDA-MB-453 [2], 112%; in the test on CAL-148 [3], 106%; in the test on HDQ-P1 [4], 107%; in the test with CAL-85-1 [5], 92.9%; in the test on CAL-51 [6], 97.4%.

`Cc1ccc(-n2nc(C(C)(C)C)cc2NC(=O)Nc2ccc(OCCN3CCOCC3)c3ccccc23)cc1` [Doramapimod] (3000 nM): the normalised viability is 114% in the test with DU-4475 [1]; 96.8% with MDA-MB-453 [2]; 93.1% with CAL-148 [3]; 75.8% in the test with HDQ-P1 [4]; 76% with CAL-85-1 [5]; 102% in the test on CAL-51 [6].

Turning to `CN(N=O)C(=O)N[C@@H](C=O)[C@@H](O)[C@H](O)[C@H](O)CO` [Streptozocin] (3000 nM), the normalised viability is 95.3% in the test on DU-4475 [1]; 109% with MDA-MB-453 [2]; 98.7% in the test on CAL-148 [3]; 110% in the test on HDQ-P1 [4]; 97.8% in the test with CAL-85-1 [5]; 108% in the test with CAL-51 [6].

On to `Cc1ccc(C(=O)Nc2ccc(CN3CCN(C)CC3)c(C(F)(F)F)c2)cc1C#Cc1cnc2cccnn12` [Ponatinib] (300 nM), for which the normalised viability stood at 73.8% in the test with DU-4475 [1]; 54.3% with MDA-MB-453 [2]; 87.7% in the test on CAL-148 [3]; 58.9% with HDQ-P1 [4]; 80.5% with CAL-85-1 [5]; 73.9% in the test on CAL-51 [6].

On to `CN[C@@H]1C[C@H]2O[C@@](C)([C@@H]1OC)n1c3ccccc3c3c4c(c5c6ccccc6n2c5c31)C(=O)N[C@H]4O` [UCN-01] (3000 nM), for which the normalised viability in the test with DU-4475 [1] was 1.19%; with MDA-MB-453 [2] it was 20.2%; in the test with CAL-148 [3] it was 41.7%; in the test on HDQ-P1 [4], 10.2%; in the test on CAL-85-1 [5] it was 6.08%; with CAL-51 [6], 6.6%.

`N[C@@H](CSC(c1ccccc1)(c1ccccc1)c1ccccc1)C(=O)O` [S-trityl-L-cysteine] (12000 nM): the normalised viability with DU-4475 [1] is 114%; with MDA-MB-453 [2], 99.1%; with CAL-148 [3] it was 106%; in the test with HDQ-P1 [4] it was 84.6%; in the test on CAL-85-1 [5], 36.7%; in the test with CAL-51 [6], 98.6%.

In the case of `CO[C@H]1/C=C\C=C(/C)C(=O)NC2=CC(=O)C(NCCN(C)C)=C(C[C@@H](C)C[C@H](OC)[C@H](O)[C@@H](C)/C=C(\C)[C@@H]1OC(N)=O)C2=O` [Alvespimycin] (300 nM), the normalised viability in the test with DU-4475 [1] amounted to 1.07%; in the test with MDA-MB-453 [2], 8.24%; with CAL-148 [3], 14.8%; in the test on HDQ-P1 [4] it was 33.1%; in the test with CAL-85-1 [5] it was 24.4%; in the test on CAL-51 [6], 18.2%.

Regarding `NCC(=O)CCC(=O)O` [Aminolevulinic acid] (1000 nM), the normalised viability in the test on DU-4475 [7] was 95.6%; with MDA-MB-453 [8] it was 90.5%; with CAL-148 [9], 95%; in the test with HDQ-P1 [10], 95.2%; in the test on CAL-85-1 [11] it was 97.4%; in the test on CAL-51 [12], 106%.

Regarding `N.N.[Cl][Pt][Cl]` [Cisplatin] (3000 nM), the normalised viability is 96.8% in the test on DU-4475 [1]; 100% with MDA-MB-453 [2]; 101% in the test on CAL-148 [3]; 104% in the test with HDQ-P1 [4]; 99.1% in the test with CAL-85-1 [5]; 106% in the test with CAL-51 [6].

For the compound `CNCc1ccc(-c2[nH]c3cc(F)cc4c3c2CCNC4=O)cc1` [Rucaparib] (3000 nM), the normalised viability worked out at 87.3% in the test on DU-4475 [1]; 87.5% in the test on MDA-MB-453 [2]; 87% in the test on CAL-148 [3]; 82.9% in the test on HDQ-P1 [4]; 79.3% with CAL-85-1 [5]; 102% in the test on CAL-51 [6].

As to `CC(C)Cn1cnc2c(N)nc3ccccc3c21` [Imiquimod] (3000 nM), the normalised viability in the test with DU-4475 [1] was found to be 107%; in the test on MDA-MB-453 [2] it was 95.7%; in the test with CAL-148 [3] it was 95.5%; with HDQ-P1 [4] it was 89.1%; with CAL-85-1 [5], 107%; in the test with CAL-51 [6], 107%.

Turning to `COc1cc2nccc(Oc3ccc(NC(=O)C4(C(=O)Nc5ccc(F)cc5)CC4)cc3)c2cc1OC` [Cabozantinib] (300 nM), the normalised viability in the test on DU-4475 [1] was determined as 103%; in the test on MDA-MB-453 [2], 112%; with CAL-148 [3], 94.7%; with HDQ-P1 [4], 72.6%; in the test with CAL-85-1 [5] it was 86.3%; in the test on CAL-51 [6] it was 104%.

For the compound `CCC1(c2ccc(N)cc2)CCC(=O)NC1=O` (stereo unspecified) [Aminoglutethimide] (3000 nM), the normalised viability in the test with DU-4475 [1] came out at 103%; in the test with MDA-MB-453 [2], 82.6%; in the test with CAL-148 [3], 105%; in the test on HDQ-P1 [4] it was 92.5%; with CAL-85-1 [5], 90.1%; in the test with CAL-51 [6] it was 85.1%.

For the compound `CC(=O)Nc1ccc(C(=O)Nc2ccccc2N)cc1` [CI-994] (100 nM), the normalised viability was 98.7% in the test on DU-4475 [7]; 92% with MDA-MB-453 [8]; 91.2% in the test with CAL-148 [9]; 119% with HDQ-P1 [10]; 89.5% in the test with CAL-85-1 [11]; 98.1% in the test with CAL-51 [12].

As to `CC(C)Cn1cnc2c(N)nc3ccccc3c21` [Imiquimod] (1000 nM), the normalised viability came out at 93.3% in the test with DU-4475 [7]; 104% in the test on MDA-MB-453 [8]; 106% in the test with CAL-148 [9]; 86.1% in the test with HDQ-P1 [10]; 92.8% in the test with CAL-85-1 [11]; 99.8% in the test on CAL-51 [12].

On to `C[C@]12CC[C@@H]3c4ccc(O)cc4C[C@@H](CCCCCCCCC[S+]([O-])CCCC(F)(F)C(F)(F)F)[C@H]3[C@@H]1CC[C@@H]2O` (stereo partly specified) [Fulvestrant] (3000 nM), for which the normalised viability in the test on DU-4475 [1] came out at 107%; with MDA-MB-453 [2], 92.8%; in the test on CAL-148 [3] it was 104%; with HDQ-P1 [4], 90.4%; in the test on CAL-85-1 [5], 94.6%; in the test with CAL-51 [6] it was 99.7%.

Regarding `Cn1c(Nc2ccc(C(F)(F)F)cc2)nc2cc(Oc3ccnc(-c4ncc(C(F)(F)F)[nH]4)c3)ccc21` [RAF265] (300 nM), the normalised viability came to 71.3% with DU-4475 [1]; 92.5% with MDA-MB-453 [2]; 85.5% in the test on CAL-148 [3]; 39.4% with HDQ-P1 [4]; 71.5% in the test with CAL-85-1 [5]; 66.9% in the test on CAL-51 [6].

In the case of `COc1cc([C@@H]2c3cc4c(cc3[C@@H](O[C@@H]3O[C@@H]5CO[C@@H](C)O[C@H]5[C@H](O)[C@H]3O)[C@H]3COC(=O)[C@H]23)OCO4)cc(OC)c1O` [Etoposide] (3000 nM), the normalised viability was found to be 3.63% in the test with DU-4475 [1]; 89% in the test with MDA-MB-453 [2]; 41.3% in the test on CAL-148 [3]; 78.7% in the test with HDQ-P1 [4]; 76.9% in the test on CAL-85-1 [5]; 26.4% in the test with CAL-51 [6].

With `CCN(CCCOc1ccc2c(Nc3cc(CC(=O)Nc4cccc(F)c4)[nH]n3)ncnc2c1)CCOP(=O)(O)O` [Barasertib] (300 nM), the normalised viability with DU-4475 [1] was determined as 63.8%; in the test on MDA-MB-453 [2] it was 61%; with CAL-148 [3], 22.6%; in the test with HDQ-P1 [4] it was 64.3%; with CAL-85-1 [5] it was 73.1%; in the test on CAL-51 [6] it was 54%.

Regarding `NCC(=O)CCC(=O)O` [Aminolevulinic acid] (3000 nM), the normalised viability in the test on DU-4475 [1] was found to be 110%; with MDA-MB-453 [2] it was 122%; in the test on CAL-148 [3], 96.7%; in the test with HDQ-P1 [4] it was 103%; with CAL-85-1 [5], 88.7%; with CAL-51 [6] it was 109%.

With `C#Cc1cccc(Nc2ncnc3cc(OCCOC)c(OCCOC)cc23)c1` [Erlotinib] (3000 nM), the normalised viability is 108% in the test on DU-4475 [1]; 73.5% with MDA-MB-453 [2]; 66.9% in the test with CAL-148 [3]; 75.4% with HDQ-P1 [4]; 49.8% in the test on CAL-85-1 [5]; 95.9% in the test on CAL-51 [6].
